Source: ChEMBL document CHEMBL1151510, “Inhibition of matrix metalloproteinases by P1 substituted N-carboxyalkyl dipeptides” (Bioorg Med Chem Lett, 1996)

Tests used:
Interstitial collagenase [1] = target: T1, Interstitial collagenase (Homo sapiens, UniProt P03956); assay: Inhibition of matrix metalloprotease -1.
T1 sequence (P03956 whole entry): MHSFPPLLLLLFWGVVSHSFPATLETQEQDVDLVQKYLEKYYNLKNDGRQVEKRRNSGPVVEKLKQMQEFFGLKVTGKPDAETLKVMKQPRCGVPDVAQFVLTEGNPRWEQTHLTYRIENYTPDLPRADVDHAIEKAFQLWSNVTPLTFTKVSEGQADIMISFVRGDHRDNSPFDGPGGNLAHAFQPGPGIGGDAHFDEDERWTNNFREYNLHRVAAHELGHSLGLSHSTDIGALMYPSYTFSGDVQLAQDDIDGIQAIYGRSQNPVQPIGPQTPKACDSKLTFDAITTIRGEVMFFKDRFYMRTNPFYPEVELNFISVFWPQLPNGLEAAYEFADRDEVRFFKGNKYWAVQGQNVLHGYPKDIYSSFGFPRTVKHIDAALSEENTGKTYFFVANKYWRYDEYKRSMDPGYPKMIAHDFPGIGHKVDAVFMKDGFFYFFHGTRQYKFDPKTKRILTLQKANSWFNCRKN

[2] = target: T2, 72 kDa type IV collagenase (Homo sapiens, UniProt P08253); assay: Inhibition of MMP-2.
Target sequence in this assay (P08253 whole entry): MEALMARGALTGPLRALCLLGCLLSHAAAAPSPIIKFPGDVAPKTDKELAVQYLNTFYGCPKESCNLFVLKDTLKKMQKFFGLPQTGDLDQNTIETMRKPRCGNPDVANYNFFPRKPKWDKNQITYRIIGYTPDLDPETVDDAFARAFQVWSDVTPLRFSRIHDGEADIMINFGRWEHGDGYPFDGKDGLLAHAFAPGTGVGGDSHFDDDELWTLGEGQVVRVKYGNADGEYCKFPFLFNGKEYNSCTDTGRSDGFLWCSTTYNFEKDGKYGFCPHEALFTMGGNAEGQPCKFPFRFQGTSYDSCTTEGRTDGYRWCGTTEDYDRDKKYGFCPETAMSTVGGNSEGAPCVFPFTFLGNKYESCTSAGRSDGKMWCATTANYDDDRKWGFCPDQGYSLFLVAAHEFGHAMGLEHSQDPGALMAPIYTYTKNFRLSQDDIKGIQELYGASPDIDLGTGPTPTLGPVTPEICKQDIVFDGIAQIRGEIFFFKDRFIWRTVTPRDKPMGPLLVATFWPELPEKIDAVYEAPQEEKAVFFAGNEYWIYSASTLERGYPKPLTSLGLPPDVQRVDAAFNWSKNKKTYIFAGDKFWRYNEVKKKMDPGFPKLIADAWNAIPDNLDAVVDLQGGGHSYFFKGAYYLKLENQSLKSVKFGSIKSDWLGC

Stromelysin-1 [3] = target: T3, Stromelysin-1 (Homo sapiens, UniProt P08254)
T3 sequence (P08254 whole entry): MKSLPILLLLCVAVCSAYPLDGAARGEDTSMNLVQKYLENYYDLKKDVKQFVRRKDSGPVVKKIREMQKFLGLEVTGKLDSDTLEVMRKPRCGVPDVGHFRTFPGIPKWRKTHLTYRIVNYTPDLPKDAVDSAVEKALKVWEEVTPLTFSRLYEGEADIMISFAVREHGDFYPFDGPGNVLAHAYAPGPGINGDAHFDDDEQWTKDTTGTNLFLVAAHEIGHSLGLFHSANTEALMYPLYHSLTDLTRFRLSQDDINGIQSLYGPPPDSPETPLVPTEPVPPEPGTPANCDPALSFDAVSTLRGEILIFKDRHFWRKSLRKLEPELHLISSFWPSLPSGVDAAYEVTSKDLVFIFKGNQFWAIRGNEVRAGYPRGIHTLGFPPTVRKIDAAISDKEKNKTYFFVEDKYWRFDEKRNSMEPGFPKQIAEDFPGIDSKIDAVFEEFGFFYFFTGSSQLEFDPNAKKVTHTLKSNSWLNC

[4] = target: T2, 72 kDa type IV collagenase; assay: Inhibition of matrix metalloprotease-2 at 1 uM.
Target sequence in this assay (P08253 110-660 limits assumed): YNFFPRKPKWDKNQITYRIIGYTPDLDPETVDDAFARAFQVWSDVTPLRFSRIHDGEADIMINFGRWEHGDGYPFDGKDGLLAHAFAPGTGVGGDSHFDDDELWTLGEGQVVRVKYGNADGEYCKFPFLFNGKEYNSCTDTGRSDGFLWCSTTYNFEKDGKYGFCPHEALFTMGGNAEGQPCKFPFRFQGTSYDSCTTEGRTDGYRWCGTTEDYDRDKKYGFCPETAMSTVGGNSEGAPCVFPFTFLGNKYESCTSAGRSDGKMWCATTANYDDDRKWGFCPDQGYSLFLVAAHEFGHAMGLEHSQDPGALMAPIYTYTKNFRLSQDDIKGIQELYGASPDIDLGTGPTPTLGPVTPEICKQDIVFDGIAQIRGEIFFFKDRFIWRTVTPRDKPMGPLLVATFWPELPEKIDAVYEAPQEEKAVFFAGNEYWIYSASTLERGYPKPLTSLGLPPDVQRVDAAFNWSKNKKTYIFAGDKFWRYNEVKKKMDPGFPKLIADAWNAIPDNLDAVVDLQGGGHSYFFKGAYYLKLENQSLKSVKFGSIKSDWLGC

[5] = target: T4, Interstitial collagenase (Homo sapiens) (UniProt P03956); assay: Inhibition of matrix metalloprotease-1 at 10 uM
T4 sequence (whole entry): T1 sequence (P03956 whole entry)

[6] = target: T2, 72 kDa type IV collagenase; assay: Inhibition of matrix metalloprotease-2 at 1 uM
Target sequence in this assay (P08253 110-660 limits assumed): as above

Interstitial collagenase [7] = target: T1, Interstitial collagenase; assay: Inhibition of matrix metalloprotease -1
[8] = target: T2, 72 kDa type IV collagenase; assay: Inhibition of matrix metalloprotease-2
Target sequence in this assay (P08253 whole entry): as the sequence (P08253 whole entry) above

Stromelysin-1 [9] = target: T3, Stromelysin-1; assay: Inhibition of matrix metalloprotease -3

Row | Ki (Interstitial collagenase [1]) | Ki [2] | Ki (Stromelysin-1 [3]) | inhibition [4] | Compound | further results
1 | 5800 nM | 120 nM | 32 nM |  | CC(C)C[C@H](NC(=O)[C@H](CCc1ccccc1)N[C@H](CCCCNC(=O)c1ccccc1)C(=O)O)C(=O)Nc1ccccc1 | 
2 | 2200 nM |  | 9.5 nM | 87% | CC(C)C[C@H](NC(=O)[C@H](CCc1ccccc1)N[C@H](CCCNC(=O)CCc1ccccc1)C(=O)O)C(=O)Nc1ccccc1 | 
3 |  |  | 270 nM | 50% | CC(C)C[C@H](NC(=O)[C@H](CCc1ccccc1)N[C@H](CCCNC(=O)c1ccccc1)C(=O)O)C(=O)Nc1ccccc1 | inhibition [5]: 50%
4 | 4410 nM | 770 nM | 270 nM |  | CC(C)C[C@H](NC(=O)[C@H](CCc1ccccc1)N[C@H](CCNC(=O)CCCc1ccccc1)C(=O)O)C(=O)Nc1ccccc1 | 
5 | 1090 nM |  | 120 nM |  | CC(C)C[C@H](NC(=O)[C@H](CCc1ccccc1)N[C@H](CCNC(=O)c1ccccc1)C(=O)O)C(=O)Nc1ccccc1 | inhibition [6]: 72%
6 | 3890 nM | 120 nM | 20 nM |  | CC(C)C[C@H](NC(=O)[C@H](CCc1ccccc1)N[C@H](CCCCCNC(=O)c1ccccc1)C(=O)O)C(=O)Nc1ccccc1 | 
7 | 1790 nM |  | 130 nM |  | CC(C)C[C@H](NC(=O)[C@H](CCc1ccccc1)N[C@H](CCNC(=O)Cc1ccccc1)C(=O)O)C(=O)Nc1ccccc1 | 
8 | 7200 nM | 70 nM | 28 nM |  | CC(C)C[C@H](NC(=O)[C@H](CCc1ccccc1)N[C@H](CCCCNC(=O)Cc1ccccc1)C(=O)O)C(=O)Nc1ccccc1 | 
9 | 870 nM | 60 nM | 10 nM |  | CC(C)C[C@H](NC(=O)[C@H](CCc1ccccc1)N[C@H](CCCNC(=O)Cc1ccccc1)C(=O)O)C(=O)Nc1ccccc1 | 
10 | 72 nM |  | 120 nM | 64% | CC(C)C[C@H](NC(=O)[C@H](CCc1ccccc1)N[C@H](CCCCc1ccccc1)C(=O)O)C(=O)Nc1ccccc1 | 
11 | 5810 nM | 350 nM | 47 nM |  | CC(C)C[C@H](NC(=O)[C@H](CCc1ccccc1)N[C@H](CCCCCNC(=O)Cc1ccccc1)C(=O)O)C(=O)Nc1ccccc1 | 
12 | 3330 nM |  | 110 nM | 41% | CC(C)C[C@H](NC(=O)[C@H](CCc1ccccc1)N[C@H](CCNC(=O)CCc1ccccc1)C(=O)O)C(=O)Nc1ccccc1 | 

The remaining lines, values behind:

Row | Compound | Ki (Interstitial collagenase [1]) | Ki [2] | Ki (Stromelysin-1 [3]) | inhibition [4] | further results
13 | CCCC[C@@H](N[C@@H](CCc1ccccc1)C(=O)N[C@@H](CC(C)C)C(=O)Nc1ccccc1)C(=O)O | 6800 nM | 1100 nM | 320 nM |  | 
14 | CC(=O)N1CCCC1C(=O)NCCCC[C@@H](N[C@@H](CCc1ccccc1)C(=O)N[C@@H](CC(C)C)C(=O)Nc1ccccc1)C(=O)O (stereo partly drawn) | 1100 nM |  | 180 nM | 91% | 
15 | CCCCCC[C@@H](N[C@@H](CCc1ccccc1)C(=O)N[C@@H](CC(C)C)C(=O)Nc1ccccc1)C(=O)O |  | 2300 nM | 530 nM |  | inhibition [5]: 43%
16 | CC(C)C[C@H](NC(=O)[C@H](CCc1ccccc1)N[C@H](CCCCN1C(=O)c2ccccc2C1=O)C(=O)O)C(=O)Nc1ccccc1 | 720 nM | 86 nM | 8 nM |  | 
17 | CC(C)C[C@H](NC(=O)[C@H](CCc1ccccc1)N[C@H](CCCCN1Cc2ccccc2C1=O)C(=O)O)C(=O)Nc1ccccc1 | 1600 nM | 110 nM | 12 nM |  | 
18 | CC[C@@H](N[C@@H](CCc1ccccc1)C(=O)N[C@@H](CC(C)C)C(=O)Nc1ccccc1)C(=O)O | 1800 nM | 1100 nM | 350 nM |  | 
19 | CC(C)C[C@H](NC(=O)[C@H](CCc1ccccc1)N[C@H](CCCNC(=O)CCCc1ccccc1)C(=O)O)C(=O)Nc1ccccc1 |  |  | 120 nM | 70% | inhibition [5]: 36%
20 | CC(C)C[C@H](NC(=O)[C@H](CCc1ccccc1)N[C@H](CCN1C(=O)c2ccccc2C1=O)C(=O)O)C(=O)Nc1ccccc1 | 2090 nM | 20 nM | 33 nM |  | 
21 | CC(C)C[C@H](NC(=O)[C@H](CCc1ccccc1)N[C@H](CCCN1C(=O)c2ccccc2C1=O)C(=O)O)C(=O)Nc1ccccc1 | 3400 nM | 570 nM | 140 nM |  | 
22 | CNC(=O)[C@H](Cc1ccccc1)NC(=O)[C@H](CC(C)C)N[C@H](CCN1C(=O)c2cc3ccccc3cc2C1=O)C(=O)O |  |  |  |  | Ki (Interstitial collagenase [7]): 5 nM; Ki [8]: 91 nM; Ki (Stromelysin-1 [9]): 20 nM
23 | CC(C)C[C@H](NC(=O)[C@H](CCc1ccccc1)N[C@H](CCCCNC(=O)CCc1ccccc1)C(=O)O)C(=O)Nc1ccccc1 | 13000 nM |  | 190 nM | 49% | 
